A value given as a limit tells only on which side of the number the result lay.

The assay deals with T1, chimeric human RORγ-Gal4 receptor (Homo sapiens, UniProt P51449).
T1 sequence (P51449 269-508 limits assumed): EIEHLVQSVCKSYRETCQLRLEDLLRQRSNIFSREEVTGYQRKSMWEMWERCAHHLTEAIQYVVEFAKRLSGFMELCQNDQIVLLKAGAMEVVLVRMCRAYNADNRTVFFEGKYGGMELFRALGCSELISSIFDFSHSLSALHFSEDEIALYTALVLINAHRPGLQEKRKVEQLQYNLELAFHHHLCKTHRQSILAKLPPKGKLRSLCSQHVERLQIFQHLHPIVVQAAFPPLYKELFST
Nature of the assay: transient transactivation assay (RORγ-Gal4 luciferase reporter). The format is cell-based. Conditions: Cos-7 cells transfected with RORγ-Gal4 and 5Gal4 pGL3 TK Luc reporter; overnight incubation; T0901317 at 10^-5 M as reference; read-out: IC50. In general terms: Reporter assays use an easily measured gene product as a stand-in for the process of interest.

As usually defined, the IC50 is the concentration at which inhibition is half-maximal. For `Cc1cc(C(F)(F)F)cc2c1nc(Cc1c(Cl)ccc(C(=O)N3CCC(CC(=O)O)CC3)c1Cl)n2C` [Example BU, 2-(1-(2,4-dichloro-3-((1,4-dimethyl-6-(trifluoromethyl)-1H-benzo[d]imidazol-2-yl)methyl)benzoyl)piperidin-4-yl)acetic acid], the concentration for half-maximal inhibition (IC50) is less than 100 nM.

Take `COCCC1CCN(Cc2ccc(Cl)c(Cc3nc4c(C)cc(C(F)(F)F)cc4n3C)c2Cl)CC1` [Example BW, 2-[[2,6-dichloro-3-[[4-(2-methoxyethyl)-1-piperidyl]methyl]phenyl]methyl]-1,4-dimethyl-6-(trifluoromethyl)benzimidazole]: the IC50 was 100 to 500 nM. Turning to `Cc1c(Br)ccc2c1nc(Cc1c(Cl)ccc(C(=O)N3CCOCC3)c1Cl)n2C` [Example CB, (3-((5-bromo-1,4-dimethyl-1H-benzo[d]imidazol-2-yl)methyl)-2,4-dichlorophenyl)(morpholino)methanone], the IC50 fell in the range of 100 to 500 nM. In the case of `CCn1c(Cc2c(Cl)ccc(C(=O)N3CCOCC3)c2Cl)cc2c(C)cc(C(F)(F)F)cc21` [Example D-1], the concentration for half-maximal inhibition (IC50) was less than 100 nM. With `CC(=O)n1c(Cc2c(Cl)ccc(C(=O)N3CCOCC3)c2Cl)cc2c(C)cc(C(F)(F)F)cc21` [Example D-2], the IC50 was less than 100 nM. `Cc1cc(C(F)(F)F)cc2c1c(Cc1c(Cl)ccc(C(=O)N3C[C@@H]4[C@H](C3)[C@H]4C(=O)O)c1Cl)cn2C` [Example F1-1]: the half-maximal inhibitory concentration (IC50) was less than 100 nM. For the compound `Cc1cc(C(F)(F)F)cc2c1c(Cc1c(Cl)ccc(C(=O)N3CC[C@H](C(=O)O)[C@H](C)C3)c1Cl)cn2C` [Example F1-2], the 50% inhibitory concentration (IC50) was less than 100 nM.

On to `Cc1cc(C(F)(F)F)cc2c1c(Cc1c(Cl)ccc(C(=O)N3CC[C@@H](C(=O)O)[C@@H](C)C3)c1Cl)cn2C` [Example F1-3], for which the IC50 is less than 100 nM. For the compound `Cc1cc(C#N)cc2c1cc(Cc1c(Cl)ncc(C(=O)N3CCC4(CCOC4)CC3)c1Cl)n2C` [Example FB, 2-((2,4-dichloro-5-(2-oxa-8-azaspiro[4.5]decane-8-carbonyl)pyridin-3-yl)methyl)-1,4-dimethyl-1H-indole-6-carbonitrile], the half-inhibitory concentration (IC50) was less than 100 nM. With `Cc1cc(C#N)cc2c1cc(Cc1c(Cl)ncc(C(=O)N3CCC(C4COC4)CC3)c1Cl)n2C` [Example FC, 2-((2,4-dichloro-5-(4-(oxetan-3-yl)piperidine-1-carbonyl)pyridin-3-yl)methyl)-1,4-dimethyl-1H-indole-6-carbonitrile], the half-maximal inhibitory concentration (IC50) is less than 100 nM. As to `COc1cc(C)c2cc(Cc3c(Cl)ccc(C(=O)N4CCC(CC(=O)O)CC4)c3Cl)n(C)c2c1` [Example FD, 2-(1-(2,4-dichloro-3-((6-methoxy-1,4-dimethyl-1H-indol-2-yl)methyl)benzoyl)piperidin-4-yl)acetic acid], the half-maximal inhibitory concentration (IC50) is less than 100 nM. Take `Cn1c(Cc2c(Cl)ccc(C(=O)N3CCC(CC(=O)O)CC3)c2Cl)cc2c(F)cc(C(F)(F)F)cc21` [Example FE, 2-(1-(2,4-dichloro-3-((4-fluoro-1-methyl-6-(trifluoromethyl)-1H-indol-2-yl)methyl)benzoyl)piperidin-4-yl)acetic acid]: the IC50 was less than 100 nM. With `Cc1cc(OC(F)F)cc2c1cc(Cc1c(Cl)ccc(C(=O)N3CCC(CC(=O)O)CC3)c1Cl)n2C` [Example FF, 2-(1-(2,4-dichloro-3-((6-(difluoromethoxy)-1,4-dimethyl-1H-indol-2-yl)methyl)benzoyl)piperidin-4-yl)acetic acid], the 50% inhibitory concentration (IC50) is less than 100 nM. `Cc1cc(C(F)(F)F)cc2c1cc(C(=O)c1c(Cl)ncc(C(=O)N3CCC(CC(=O)O)CC3)c1Cl)n2C` [Example FG, 2-(1-(4,6-dichloro-5-(1,4-dimethyl-6-(trifluoromethyl)-1H-indole-2-carbonyl)nicotinoyl)piperidin-4-yl)acetic acid]: the half-maximal inhibitory concentration (IC50) was less than 100 nM. `Cc1cc(C(F)(F)F)cc2c1cc(Cc1c(Cl)cnc(C(=O)N3CCC(CC(=O)O)CC3)c1Cl)n2C` [Example FH, 2-(1-(3,5-dichloro-4-((1,4-dimethyl-6-(trifluoromethyl)-1H-indol-2-yl)methyl)picolinoyl)piperidin-4-yl)acetic acid]: the IC50 is less than 100 nM.

Take `Cn1c(Cc2c(Cl)ccc(C(=O)N3CCC(CC(=O)O)CC3)c2Cl)cc2ccc(OC(F)(F)F)cc21` [Example FI, 2-(1-(2,4-dichloro-3-((1-methyl-6-(trifluoromethoxy)-1H-indol-2-yl)methyl)benzoyl)piperidin-4-yl)acetic acid]: the IC50 was less than 100 nM. The result for `Cc1nc(C(F)(F)F)cc2c1cc(Cc1c(Cl)ccc(C(=O)N3CCN(C4COC4)CC3)c1Cl)n2C` [Example FJ, (2,4-dichloro-3-((1,4-dimethyl-6-(trifluoromethyl)-1H-pyrrolo[3,2-c]pyridin-2-yl)methyl)phenyl)(4-(oxetan-3-yl)piperazin-1-yl)methanone] reads less than 100 nM. As to `CC(=O)Nc1cc(C)c2cc(Cc3c(Cl)ccc(C(=O)N4CCOCC4)c3Cl)n(C)c2c1` [Example FK, N-(2-(2,6-dichloro-3-(morpholine-4-carbonyl)benzyl)-1,4-dimethyl-1H-indol-6-yl)acetamide], the IC50 was less than 100 nM. The result for `Cn1c(Cc2c(C3CC3)ccc(C(=O)N3CCC(CC(=O)O)CC3)c2Cl)cc2ccc(OC(F)(F)F)cc21` [Example FL, 2-(1-(2-chloro-4-cyclopropyl-3-((1-methyl-6-(trifluoromethoxy)-1H-indol-2-yl)methyl)benzoyl)piperidin-4-yl)acetic acid] reads less than 100 nM; that for `Cn1c(Cc2c(Cl)ccc(C(=O)N3CCC(CC(=O)O)CC3)c2Cl)cc2c(F)cc(C3CC3)cc21` [Example FM, 2-(1-(2,4-dichloro-3-((6-cyclopropyl-4-fluoro-1-methyl-1H-indol-2-yl)methyl)benzoyl)piperidin-4-yl)acetic acid], less than 100 nM; that for `Cn1c(Cc2c(Cl)ccc(C(=O)N3CCC(C(=O)O)CC3)c2Cl)cc2c(F)cc(C3CC3)cc21` [Example FN, 1-(2,4-dichloro-3-((6-cyclopropyl-4-fluoro-1-methyl-1H-indol-2-yl)methyl)benzoyl)piperidine-4-carboxylic acid], less than 100 nM. In the case of `Cc1cc(C(=O)N(C)C)cc2c1cc(Cc1c(Cl)ccc(C(=O)N3CCOCC3)c1Cl)n2C` [Example FO, 2-[[2,6-dichloro-3-(morpholine-4-carbonyl)phenyl]methyl]-N,N,1,4-tetramethyl-indole-6-carboxamide], the 50% inhibitory concentration (IC50) is less than 100 nM. Take `CNC(=O)c1cc(C)c2cc(Cc3c(Cl)ccc(C(=O)N4CCOCC4)c3Cl)n(C)c2c1` [Example FP, 2-[[2,6-dichloro-3-(morpholine-4-carbonyl)phenyl]methyl]-N,1,4-trimethyl-indole-6-carboxamide]: the IC50 was less than 100 nM. For `Cc1cc(C(F)(F)F)cc2c1c(Cc1c(Cl)ccc(C(=O)N3CCC(C(=O)O)CC3)c1Cl)cn2C` [Example FQ, 1-(2,4-dichloro-3-((1,4-dimethyl-6-(trifluoromethyl)-1H-indol-3-yl)methyl)benzoyl)piperidine-4-carboxylic acid], the IC50 is less than 100 nM. Take `Cc1cn(Cc2c(Cl)cnc(C(=O)N3CCC(CC(=O)O)CC3)c2Cl)c2c(C)cc(C(F)(F)F)cc12` [Example FR, 2-(1-(3,5-dichloro-4-((3,7-dimethyl-5-(trifluoromethyl)-1H-indol-1-yl)methyl)picolinoyl)piperidin-4-yl)acetic acid]: the IC50 was less than 100 nM.

The values are drawn from US10106501B2, “Nuclear receptor modulators” (AbbVie Inc., priority 2015, dated 2018).
